Results published in patent publication US20070249670A1, “Glycogen Phosphorylase Inhibitor Compounds and Pharmaceutical Compositions Thereof” (SMITHKLINE BEECHAM CORPORATION, priority 2004, published 2007).

Target: T1, human liver glycogen phosphorylase a (HLGPa) (Homo sapiens, UniProt P06737)
T1 construct: creating a full-length cDNA fused at the 5′ end to codons for methionine-glycine-alanine-histidine; 6xHis tag (leader Met-Gly-Ala-His6-Gly-Gly) (N); made in house; host or cells: E. coli (bacterial expression plasmid pTXK1007LTev)
T1 sequence (P06737 2-847 limits assumed): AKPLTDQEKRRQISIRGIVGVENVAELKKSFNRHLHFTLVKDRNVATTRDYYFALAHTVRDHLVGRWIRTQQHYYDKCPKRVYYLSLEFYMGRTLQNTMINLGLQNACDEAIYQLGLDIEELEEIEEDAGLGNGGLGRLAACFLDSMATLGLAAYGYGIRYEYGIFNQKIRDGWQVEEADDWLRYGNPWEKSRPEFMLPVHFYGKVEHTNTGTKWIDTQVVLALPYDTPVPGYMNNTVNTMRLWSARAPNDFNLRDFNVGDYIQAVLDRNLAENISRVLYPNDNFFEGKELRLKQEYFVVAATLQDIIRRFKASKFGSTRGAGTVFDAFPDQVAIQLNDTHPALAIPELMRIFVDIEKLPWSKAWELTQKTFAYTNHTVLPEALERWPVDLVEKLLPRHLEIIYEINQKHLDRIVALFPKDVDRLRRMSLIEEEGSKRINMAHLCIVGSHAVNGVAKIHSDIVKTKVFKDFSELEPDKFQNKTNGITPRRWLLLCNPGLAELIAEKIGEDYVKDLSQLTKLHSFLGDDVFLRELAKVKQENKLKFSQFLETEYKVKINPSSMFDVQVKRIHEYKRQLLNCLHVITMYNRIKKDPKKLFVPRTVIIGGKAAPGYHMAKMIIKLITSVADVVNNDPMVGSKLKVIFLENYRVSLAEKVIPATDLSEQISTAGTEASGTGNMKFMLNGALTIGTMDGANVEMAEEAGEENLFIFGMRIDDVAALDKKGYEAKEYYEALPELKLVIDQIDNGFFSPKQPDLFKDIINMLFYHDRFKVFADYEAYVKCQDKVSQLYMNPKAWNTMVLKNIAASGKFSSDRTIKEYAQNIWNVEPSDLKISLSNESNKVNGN
Experiment: Human liver glycogen phosphorylase a enzymatic activity assay (coupled, fluorescent resorufin readout, with and without 10 mM glucose)
Format: biochemical
Settings: human liver glycogen phosphorylase a enzymatic activity assay

Compound | IC50
COc1ccc(-c2cc(C(=O)O)c(NC(=O)Nc3c(C)cc(C)cc3C)s2)cc1 [Example 424, 5-[4-(methyloxy)phenyl]-2-({[(2,4,6-trimethylphenyl)amino]carbonyl}amino)-3-thiophenecarboxylic acid] | 290 nM
COc1ccc(-c2cc(C(=O)N[C@H](C(=O)O)C3CCCCC3)c(NC(=O)Nc3c(C)cc(C)cc3C)s2)cc1 [Example 425, (2S)-cyclohexyl({[5-[4-(methyloxy)phenyl]-2-({[(2,4,6-trimethylphenyl)amino]carbonyl}amino)-3-thienyl]carbonyl}amino)ethanoic acid] | 16 nM
Cc1cc(C)c(NC(=O)Nc2sc(-c3ccc(OC(F)(F)F)cc3)cc2C(=O)N[C@H](C(=O)O)C2CCCCC2)c(C)c1 [Example 431, (2S)-cyclohexyl({[5-{4-[(trifluoromethyl)oxy]phenyl}-2-({[(2,4,6-trimethylphenyl)amino]carbonyl}amino)-3-thienyl]carbonyl}amino)ethanoic acid] | 330 nM
COc1ccc(-c2cc(NC(=O)Nc3c(Cl)cc(OC(F)(F)F)cc3Cl)c(C(=O)N[C@H](C(=O)O)C3CCCCC3)s2)cc1 [Example 433, (2S)-cyclohexyl[({3-{[({2,6-dichloro-4-[(trifluoromethyl)oxy]phenyl}amino)carbonyl]amino}-5-[4-(methyloxy)phenyl]-2-thienyl}carbonyl)amino]ethanoic acid] | 80 nM
O=C(Nc1cc(-c2ccc(OC(F)(F)F)cc2)sc1C(=O)O)Nc1c(Cl)cccc1Cl [Example 434, 3-({[(2,6-dichlorophenyl)amino]carbonyl}amino)-5-{4-[(trifluoromethyl)oxy]phenyl}-2-thiophenecarboxylic acid] | 2120 nM

Further lines, results first:

IC50 | Compound
1310 nM | COc1ccc(-c2cc(C(=O)O)c(NC(=O)Nc3c(Cl)cc(OC(F)(F)F)cc3Cl)s2)cc1 [Example 426, 2-{[({2,6-dichloro-4-[(trifluoromethyl)oxy]phenyl}amino)carbonyl]amino}-5-[4-(methyloxy)phenyl]-3-thiophenecarboxylic acid]
27 nM | COc1ccc(-c2cc(C(=O)N[C@H](C(=O)O)C3CCCCC3)c(NC(=O)Nc3c(Cl)cc(OC(F)(F)F)cc3Cl)s2)cc1 [Example 427, (2S)-cyclohexyl[({2-{[({2,6-dichloro-4-[(trifluoromethyl)oxy]phenyl}amino)carbonyl]amino}-5-[4-(methyloxy)phenyl]-3-thienyl}carbonyl)amino]ethanoic acid]
1220 nM | O=C(Nc1sc(-c2ccc(OC(F)(F)F)cc2)cc1C(=O)O)Nc1c(Cl)cc(OC(F)(F)F)cc1Cl [Example 428, 2-{[({2,6-dichloro-4-[(trifluoromethyl)oxy]phenyl}amino)carbonyl]amino}-5-{4-[(trifluoromethyl)oxy]phenyl}-3-thiophenecarboxylic acid]
96 nM | O=C(Nc1sc(-c2ccc(OC(F)(F)F)cc2)cc1C(=O)N[C@H](C(=O)O)C1CCCCC1)Nc1c(Cl)cc(OC(F)(F)F)cc1Cl [Example 429, (2S)-cyclohexyl{[(2-{[({2,6-dichloro-4-[(trifluoromethyl)oxy]phenyl}amino)carbonyl]amino}-5-{4-[(trifluoromethyl)oxy]phenyl}-3-thienyl)carbonyl]amino}ethanoic acid]
740 nM | Cc1cc(C)c(NC(=O)Nc2sc(-c3ccc(OC(F)(F)F)cc3)cc2C(=O)O)c(C)c1 [Example 430, 5-{4-[(trifluoromethyl)oxy]phenyl}-2-({[(2,4,6-trimethylphenyl)amino]carbonyl}amino)-3-thiophenecarboxylic acid]
2700 nM | COc1ccc(-c2cc(NC(=O)Nc3c(Cl)cc(OC(F)(F)F)cc3Cl)c(C(=O)O)s2)cc1 [Example 432, 3-{[({2,6-dichloro-4-[(trifluoromethyl)oxy]phenyl}amino)carbonyl]amino}-5-[4-(methyloxy)phenyl]-2-thiophenecarboxylic acid]
